From paper PMC9785441, “A Broad Spectrum Antiparasitic Activity of Organotin (IV) Derivatives and Its Untargeted Proteomic Profiling Using Leishmania donovani” (Pathogens, 2022) come the findings set out here.

Data set [1] has as its system T. b. brucei Lister 427 bloodstream forms. Description: T. brucei bloodstream form viability assay (SYBR Green). In kind it is cell-based, Trypanosoma brucei. Conditions: for EC50: bloodstream forms, 72 h. How it is done: Bloodstream forms of T. b. brucei Lister 427 were cultured in complete HMI-9 medium in T25 suspension culture flasks (Thermo Scientific, Cat. 12-566-84) and maintained at 37 °C and 5% CO2. Trypanosomes were kept in log-phase growth and passaged every 48 h. […] Pentamidine were used as a positive control for T. brucei assay. Compounds were diluted with fresh HMI-9 medium (99 µL/well). Parasites in log-phase were suspended at 2 × 10^5 parasites/mL in HMI-9 medium and then added to each well (100 µL) to give 2 × 10^4 trypanosomes/well. Assay plates were incubated at 37 °C and 5% CO2 for 72 h. Parasite lysate was obtained by addition of 50 µL/well of lysis solution (0.012% saponin, 0.12% Triton X-100, 7.5 mM ETDA, 30 mM Tris, pH 7.5) containing 0.3 µL/mL SYBR Green I (10,000× in DMSO; Invitrogen, Carlsbad, CA, USA). Assay plates were incubated in the dark for 1 h at room temperature. Fluorescence was measured at 485 nm excitation and 535 nm emission wavelengths using an EnVision multilabel plate reader (PerkinElmer, Waltham, MA, USA). In each assay plate, parasite viability was normalized relative to positive (pentamidine) and negative (0.5% DMSO) controls in each assay plate. Assays were performed in biological and technical duplicates, and dose–response and EC50 data were generated with GraphPad Prism 9 using a sigmoidal four parameter logistic curve.

The test system of data set [2] is S. mansoni, adult worm. Description: S. mansoni adult worm ex vivo phenotypic screen (severity score). Conditions: for severity score, adult S. mansoni: maximum of 4; for S. mansoni, adult worm: least concentration at which a severity score of 4 was recorded: after 24 h, tested at 10, 5, 2.5 and 1.25 µM, EC50. It is filed as cell-based, Schistosoma mansoni. The source says:
The Naval Medical Research Institute (NMRI) isolate of S. mansoni was used. The parasite was cycled between Biomphalaria glabrata snails and male Golden Syrian hamsters (infected at 4–6 weeks of age) as intermediate and definitive hosts, respectively. Hamsters were infected and maintained in accordance with protocols approved by the Institutional Animal Care and Use Committee (IACUC) at the University of California San Diego. The acquisition, preparation and in vitro maintenance of S. mansoni have been described. Briefly, adult worms were harvested from hamsters 42 days post-infection in RPMI or DMEM, and washed five times prior to maintenance overnight at 37 °C and 5% CO2 in Basch medium containing 4% heat-inactivated FBS, 100 µg/mL streptomycin and 100 U/mL penicillin.
Ex vivo screens with adults employed 24-well flat-bottomed plates and approximately 5 males and 2–3 females/well. The complex and often dynamic phenotypic responses that the schistosome parasite is capable of were observed using a Zeiss Axiovert A1 inverted microscope at 24 h. Observations were classified using a constrained nomenclature that involves simple “descriptors” to convey changes in shape, motility and appearance, and the inability of the male worm to adhere to the bottom of the well, compared to DMSO controls. Each descriptor was given a value of 1 and these were added up to yield a “severity score” with a maximum of 4. Evidence of degeneracy or death was awarded a value of 4 as was damage to the tegument (parasite’s surface) on the understanding this would compromise survival in vivo. […] Data were averaged across two experiments for each compound concentration tested.

Data set [3] concerns HEK-293T cells. Description: HEK293 cytotoxicity assay (resazurin). In kind it is cell-based. The settings on record: human embryonic kidney cells, 48 h, max 4 µM; read-out: CC50 HEK923. How it is done:
HEK-293T cells were cultured in DMEM (Gibco) supplemented with 10% heat inactivated FBS (Corning) and 1% penicillin-streptomycin (Gibco). Cells were maintained in vented T75 cell culture flasks (Thermo Scientific, Cat. 12-565-349) at 37 °C and 5% CO2, and were passaged every 72 h. […] Compounds were diluted with fresh DMEM (49 µL/well). HEK-293 cells were suspended at 4 × 10^5 cells/mL in DMEM and added to each well (50 µL/well) to give 2 × 10^4 cells/well. Assay plates were incubated at 37 °C and 5% CO2 for 48 h, followed by addition of 20 µL of 0.5 mM resazurin (Alfa Aesar, Cat. B21187) in PBS to each well. […] In each assay plate, cell viability was normalized relative to positive and negative controls. Assays were performed in biological and technical duplicates, and dose–response and CC50 data were generated with GraphPad Prism 5 using a sigmoidal four parameter logistic curve.

Data set [4] deals with E. histolytica HM1:IMSS trophozoites. Description: E. histolytica trophozoite viability assay (CellTiter-Glo). In kind it is cell-based, Entamoeba histolytica. The settings on record: 48 h. The procedure:
Trophozoites of E. histolytica HM1:IMSS were maintained in vitro as described in TYI-S-33 medium supplemented with penicillin (100 U/mL) and streptomycin (100 µg/mL). Test compounds were serially diluted and transferred to a white solid bottomed 96-well tissue culture plate (E&K Scientific, Swedesboro, NJ, USA) followed by addition of 5000 E. histolytica trophozoites per well for a final volume of 100 µL TYI-S-33 medium and a final concentration of compounds ranging from 50 to 0.39 µM. Metronidazole were used as positive control and assay plates were incubated for 48 h at 37 °C. The plates maintained kept anaerobically using the GasPak EZ Anaerobic Gas Generating Pouch System (VWR). Parasite viability was measured in triplicate using the CellTiter-Glo luminescence kit (Promega G9243) in an Envision plate reader (Perkin Elmer, Waltham, MA, USA). EC50 values were obtained using GraphPad Prism 9 Software.

Data set [5] can be described thus: Cytotoxicity to B10R host cells (nuclei count in the amastigote assay). In kind it is cell-based. The settings on record: mouse, B10R monocyte cells co-cultured with L. donovani parasites. How it is done: For the intracellular amastigote stage assay, L. donovani was incubated at a density of 1 × 10^6 parasites/mL for six days at 29 °C before infection to enrich the proportion of metacyclic promastigotes. B10R monocyte cell lines were cultured in RPMI supplemented with 10% FBS and 1%penicillin/streptomycin at 37 °C in 5% CO2. After 72 h, cells were counted with a hemocytometer and mixed with the six-day-old parasites. […] Plates were incubated at 37 °C and 5% CO2 for 72 h. Cultures were then fixed with 4% formaldehyde solution for 30 min and stained with 0.5 µg/mL DAPI (diamidino-2-phenylindole). Plates were then imaged using an ImageXpress Micro XLS automated high content imager (Molecular Devices, San Jose, CA, USA) using a 10× air objective. A custom image analysis module generated in ImageXpress was used to count the nuclei of host and parasite cells. EC50 values were obtained using the GraphPad Prism 9 Software with biological triplicates.

Setting [6] is: at all concentrations (10, 5, 2.5 and 1.25 µM), 24 h.

`CCC[CH2][Sn]([Cl])([Cl])[O]C(=O)CCC(=O)Nc1ccc(OC)cc1` [MS26BuSnCl2] had an EC50 in data set [1] of more than 4000 nM. Also, the “severity score, adult S. mansoni” value in data set [2] (10 µM, 24 h) is “zero”. Moreover, the “S. mansoni, adult worm: least concentration at which a severity score of 4 was recorded” value (shortened to “S. mansoni, adult worm”) in data set [2] is more than 10.0 µM. Also, the cytotoxic concentration (CC50) in data set [3] is more than 4000 nM.
On to `CCC[CH2][Sn]([CH2]CCC)([O]C(=O)CCC(=O)Nc1ccc(OC)cc1)[O]C(=O)CCC(=O)Nc1ccc(OC)cc1` [MS26Bu2], for which the EC50 in data set [1] amounted to 290 nM. For the same molecule, the “S. mansoni, adult worm” value in data set [2] was determined as 1.25 µM. The “severity score, adult S. mansoni” value in data set [2] (setting [6]) is reported as 4. For the same molecule, in data set [3], the cytotoxic concentration (CC50) amounted to 370 nM.
Molecule `COc1ccc(NC(=O)CCC(=O)[O][Sn]([CH3])([CH3])[CH3])cc1` [MS26Me3] yielded an EC50 in data set [1] of more than 4000 nM. For the same molecule, the “response of adult S. mansoni” value in data set [2] (5 µM, 24 h) is recorded as “the same response as MS26Oct2 at 10 µM”. For the same molecule, in data set [2] (10 µM, 24 h), the “severity score, adult S. mansoni” value was “lethal”. Besides, the “S. mansoni, adult worm” value in data set [2] came to 10 µM. The CC50 in data set [3] amounted to 1240 nM.
`C[CH2][Sn]([CH2]C)([CH2]C)[O]C(=O)CCC(=O)Nc1ccc(OC)cc1` [MS26Et3] displayed a T. brucei eliminated in data set [1] (5 µM) of more than 99%. The concentration for a half-maximal effect (EC50) in data set [1] was 90 nM; in data set [4] it was 5600 nM. In data set [2] (setting [6]), the “severity score, adult S. mansoni” value was found to be 4.
Take `COc1ccc(NC(=O)CCC(=O)O)cc1` [MS26, 4-(4-methoxyphenylamino)-4 oxobutanoic acid]: the figures for the half-maximal effective concentration (EC50) in data set [1] (Trypanosoma brucei) and in data set [4] (Entamoeba histolytica) were more than 4000 nM and more than 10000 nM, respectively. Moreover, the “severity score, adult S. mansoni” value in data set [2] (10 µM, 24 h) is recorded as “zero”. Besides, in data set [2], the “S. mansoni, adult worm” value is reported as more than 10.0 µM. Further, in data set [5], half-maximal cytotoxicity (CC50 at 72 h) was put at 2380 nM.
Regarding `COc1ccc(NC(=O)CCC(=O)[O][Sn]([CH]2CCCCC2)([CH]2CCCCC2)[CH]2CCCCC2)cc1` [MS26Cy3], the EC50 in data set [1] stood at 80 nM. Further, in data set [2], the “S. mansoni, adult worm” value is given as 1.25 µM. Moreover, in data set [2] (setting [6]), the “severity score, adult S. mansoni” value worked out at 4. The CC50 in data set [3] is 110 nM.
As to `CCC[CH2][Sn]([CH2]CCC)([CH2]CCC)[O]C(=O)CCC(=O)Nc1ccc(OC)cc1` [MS26Bu3], the 50% effective concentration (EC50) in data set [1] is 50 nM; in data set [4], 8700 nM. In addition, the “S. mansoni, adult worm” value in data set [2] was 1.25 µM. In addition, in data set [2] (setting [6]), the “severity score, adult S. mansoni” value is reported as 4. Further, in data set [3], the CC50 came to 140 nM.
Consider `C=[CH][Sn]([CH]=C)([O]C(=O)CCC(=O)Nc1ccc(OC)cc1)[O]C(=O)CCC(=O)Nc1ccc(OC)cc1` [MS26vin2], for which the EC50 in data set [1] is more than 4000 nM. Moreover, the “severity score, adult S. mansoni” value in data set [2] (10 µM, 24 h) is on record as “zero”. Besides, the “S. mansoni, adult worm” value in data set [2] is more than 10.0 µM. In addition, the 50% cytotoxic concentration (CC50) in data set [3] was more than 4000 nM.
`COc1ccc(NC(=O)CCC(=O)[O-])cc1.[Na+]` [MS26Na, sodium 4-(4-methoxyphenylamino)-4 oxobutanoate] had a concentration for a half-maximal effect (EC50) in data set [1] of more than 4000 nM. In addition, the “severity score, adult S. mansoni” value in data set [2] (10 µM, 24 h) is reported as “zero”. In addition, the “S. mansoni, adult worm” value in data set [2] is more than 10.0 µM. The 50% cytotoxic concentration (CC50) in data set [3] was more than 4000 nM.
Molecule `COc1ccc(NC(=O)CCC(=O)[O][Sn]([c]2ccccc2)([c]2ccccc2)[c]2ccccc2)cc1` [MS26Ph3] displayed a 50% effective concentration (EC50) in data set [1] of 90 nM. The “S. mansoni, adult worm” value in data set [2] is 1.25 µM. Besides, the “severity score, adult S. mansoni” value in data set [2] (setting [6]) was 4. Also, the CC50 in data set [3] stood at 360 nM.
